Structures can show the parent of a compound that is named as a salt.
Legend:
[1] = Phase 1 single-dose crossover study: treatment-emergent adverse events; type: in vivo, human
Experimental: The pharmacokinetics and relative bioavailabilities of a 300 mg delafloxacin intravenous dosage form according to Example 1 and a 450 mg dose of oral delafloxacin according to Example 4 were measured in a Phase 1, single-dose, open-label, randomized, 2-period, 2-sequence crossover study. 56 healthy subjects received a single 450-mg dose of oral delafloxacin and a single 300-mg delafloxacin IV infusion in 1 of 2 treatment sequences. Plasma samples were analyzed for delafloxacin concentrations with a validated LC-MS/MS method. Pharmacokinetic parameters were calculated using noncompartmental methods.
16 treatment-emergent AEs (TEAE) were reported, the most frequent of which were headache (5.4%), followed by diarrhea (3.6%). 2 TEAEs were considered moderate in severity, but the remainders were considered mild, and none led to study discontinuation.

[2] = Clinical trial of oral and intravenous-then-oral delafloxacin regimens: adverse event reporting, incidence of diarrhea; type: in vivo, human; settings: for Abdominal Pain, subjects reporting, number (%) / Diarrhea, subjects reporting, number (%) / Gastrointestinal disorders, subjects reporting, number (%) / Nausea, subjects reporting, number (%): n = 20, safety population; for Percentage of subjects who reported diarrhea: oral capsules
[3] = 56 healthy subjects, single 450-mg oral dose and single 300-mg IV infusion
[4] = Regimens A/B: 400-mg oral capsules (4 × 100-mg)
[5] = Regimen C: 300 mg IV then 400 mg oral capsules

| Compound | Diarrhea TEAE frequency [1, 3] [%] | Headache TEAE frequency [1, 3] [%] | Number of treatment-emergent AEs (TEAE) reported [1, 3] | TEAEs that led to study discontinuation ([1]; in vivo) | Number of TEAEs considered moderate in severity ([1]; remainders considered mild) | Abdominal Pain, subjects reporting, number (%) [2, 4] | Diarrhea, subjects reporting, number (%) [2, 4] | Gastrointestinal disorders, subjects reporting, number (%) [2, 4] | Nausea, subjects reporting, number (%) [2, 4] | Percentage of subjects who reported diarrhea [2] [%] | Abdominal Pain, subjects reporting, number (%) [2, 5] | Diarrhea, subjects reporting, number (%) [2, 5] | Gastrointestinal disorders, subjects reporting, number (%) [2, 5] | Nausea, subjects reporting, number (%) [2, 5] | Side effects reported ([2]; group with intravenous administration followed by oral treatment) | Tolerability ([2]; intravenous formulation (300 mg, 3 days) followed by oral formulation (400 mg BID, 4 days)) | Side effects as compared to all-oral formulations ([2]; intravenous formulation followed by oral formulation) |
| --- | --- | --- | --- | --- | --- | --- | --- | --- | --- | --- | --- | --- | --- | --- | --- | --- | --- |
| Nc1nc(-n2cc(C(=O)O)c(=O)c3cc(F)c(N4CC(O)C4)c(Cl)c32)c(F)cc1F [delafloxacin, 1-(6-amino-3,5-difluoro-2-pyridinyl)-8-chloro-6-fluoro-1,4-dihydro-7-(3-hydroxy-1-azetidinyl)-4-oxo-3-quinolinecarboxylic acid] | 3.6 | 5.4 | 16 | none | 2 | – | – | – | – | – | – | – | – | – | – | – | – |
| Nc1nc(-n2cc(C(=O)O)c(=O)c3cc(F)c(N4CC(O)C4)c(Cl)c32)c(F)cc1F [Potassium Salt] | – | – | – | – | – | 2 (10.0%) | 3 (15.0%) | 3 (15.0%) | 1 (5.0%) | 15.0 | – | – | – | – | – | – | – |
| CNC[C@H](O)[C@@H](O)[C@H](O)[C@H](O)CO.Nc1nc(-n2cc(C(=O)O)c(=O)c3cc(F)c(N4CC(O)C4)c(Cl)c32)c(F)cc1F [Meglumine Salt, D-glucitol, 1-deoxy-1-(methylamino)-, 1-(6-amino-3,5-difluoro-2-pyridinyl)-8-chloro-6-fluoro-1,4-dihydro-7-(3-hydroxy-1-azetidinyl)-4-oxo-3-quinolinecarboxylate] | – | – | – | – | – | 0 | 3 (15.0%) | 5 (25.0%) | 0 | 15.0 | 0 | 0 | 0 | 0 | No side effect | well tolerated | reduced side effects |
